The structures appear in SMILES notation.

The target in one assay is T1, HuBChE (Homo sapiens, UniProt P06276).
T1 construct: gene BCHE; native human enzyme, commercial (Sigma Chemical Co.)
As to the kind of experiment: Ellman assay, […] nm; global fit of hydrolysis inhibition and carbamoylation. Conditions: read-out: HuBChE (BTCh). The class given is biochemical. (In Ellman's method for cholinesterases, released thiocholine reacts with DTNB.)

Another assay concerns the target T2, DmAChE (Drosophila melanogaster, UniProt P07140).
T2 construct: gene Ace
Described as above. The assay is classed as biochemical. Conditions: read-out: DmAChE (ATCh).

As to `CCN(CC)C(=O)c1cccc(C)c1` [deet, N,N-Diethyl-3-methylbenzamide], the Ki at HuBChE is 370 ± 50 µM; at DmAChE, 1020 ± 30 µM.

The values above are taken from publication PMC2739159, “Evidence for inhibition of cholinesterases in insect and mammalian nervous systems by the insect repellent deet” (BMC Biology, 2009).
